In patent US5763577A, “Substituted tetra- and pentapeptide inhibitors of protein: farnesyl transferase” (Warner-Lambert Company, priority 1996, dated 1998):
Structures can show the parent of a compound that is named as a salt. Non-standard residues stand in square brackets, D forms with d. Residues, ends and D or L forms follow the SMILES beside them. *: point of attachment. Cbz = O=C(OCc1ccccc1)*; Bn = c1ccc(C*)cc1

Biological target: T1, rat brain farnesyl protein transferase (Rattus norvegicus, UniProt Q02293+Q04631)
T1 construct: 40-fold purified rat brain farnesyl protein transferase; from tissue; host or cells: rat brain
Assay: PFT inhibitory activity assay (3H-farnesyl pyrophosphate, biotinyl peptide, streptavidin beads)
Type: biochemical
Details: 30 mM potassium phosphate buffer pH 7.4; FPP 0.12 μM; (biotinyl)-Ahe-Tyr-Lys-Cys-Val-Ile-Met 0.1 μM; 37° C, 30 minutes
Procedure: The PFT inhibitory activity of compounds of Formula I was assayed in 30 mM potassium phosphate buffer, pH 7.4, containing 7 mM DTT, 1.2 MM MgCl2, 0.1 mM leupeptin, 0.1 mM pepstatin, and 0.2 mM phenylmethylsulfonyl fluoride. Assays were performed in 96 well plates (Wallec) and employed solutions composed of varying concentrations of a compound of Formula I in 100% DMSO. Upon addition of both substrates, radiolabeled farnesyl pyrophosphate ([1-^3 H], specific activity 15-30 Ci/mmol, final concentration 0.12 μM) and (biotinyl)-Ahe-Tyr-Lys-Cys-Val-Ile-Met peptide (final concentration 0.1 μM), the Seq ID NO:59 enzyme reaction was started by addition of 40-fold purified rat brain farnesyl protein transferase. After incubation at 37° C for 30 minutes, the reaction was terminated by diluting the reaction 2.5-fold with a stop buffer containing 1.5M magnesium acetate, 0.2M H3 PO4, 0.5% BSA, and strepavidin beads (Amersham) at a concentration of 1.3 mg/mL. After allowing the plate to settle for 30 minutes at room temperature, radioactivity was quantitated on a microBeta counter (model 1450, Wallec).

Row | Compound | IC50
1 | C[C@@H](NC(=O)[C@H](COCc1ccccc1)NC(=O)[C@H](Cc1ccc(OCc2ccccc2)cc1)NC(=O)[C@H](Cc1c[nH]cn1)NC(=O)OCc1ccccc1)C(=O)O [Cbz--His--Tyr(OBn)--Ser(OBn)--DAla--OH, N-[N-[N-[N-[(Phenylmethoxy)carbonyl]-L-histidyl]-O-(phenylmethyl)-L-tyrosyl]-O-(phenylmethyl)-L-seryl]-D-alanine, monohydrochloride] (Cbz-HY(Bn)S(Bn)[dA]-OH) | 404 nM
2 | COC(=O)[C@@H](C)NC(=O)[C@H](COCc1ccccc1)NC(=O)[C@H](Cc1ccc(OCc2ccccc2)cc1)NC(=O)[C@H](Cc1c[nH]cn1)NC(=O)OCc1ccccc1 [Cbz--His--Tyr(OBn)--Ser(OBn)--DAla--OM2, N-[N-[N-[N-[(Phenylmethoxy)carbonyl]-L-histidyl]-O-(phenylmethyl)-L-tyrosyl]-O-(phenylmethyl)-L-seryl]-D-alanine, methyl ester] (Cbz-HY(Bn)S(Bn)[dA]-OMe) | 142 nM
